{"source": "patent US20250360167A1", "about": "(Keryx Biopharmaceuticals, Inc., priority 2013, published 2025)", "format_in_all_cases": "in vivo, human", "key": {"[1]": {"assay": "Phase 3 trial (Example 1): cumulative EPO (ESA) administered to Week 52", "text": "The cumulative EPO (ESA) administrated from randomization to Week 52 will be compared between treatment groups. This variable will be similarly analyzed as the primary efficacy variable using ANCOVA method. The two-sided 95% confidence intervals of treatment differences for all above comparisons will be presented."}, "[2]": {"assay": "Phase 3 trial (Example 1): hospitalizations, cardiac severe adverse events", "description": "Safety was assessed by recording and monitoring adverse events, concomitant medication use, physical examinations, and sequential blood by treatment assignment. Rates of adverse events were summarized overall and by organ system class, preferred term, severity, and suspected relationship to study drug by treatment assignment. AEs were summarized for the Washout Period, Safety Assessment Period, and Efficacy Assessment Period separately by treatment assignment. The changes from baseline in laboratory parameters over time were summarized by treatment assignment."}, "TSAT": {"system": "TSAT", "assay": "Phase 2 trial (Example 2): TSAT", "text": "Change in serum phosphorus, ferritin and TSAT levels from baseline to end of treatment after 12 weeks are the primary endpoints.\nThe co-primary efficacy endpoints of this trial were the mean changes in serum phosphorus and TSAT from baseline to the end of the 12-week treatment period versus placebo in the ITT group."}, "[3]": {"system": "intact fibroblast growth factor 23 (FGF23)", "assay": "Phase 2 trial (Example 2): intact FGF-23", "conditions": "n = 63", "description": "Change in calcium x phosphorus product, serum calcium, estimated glomerular filtration rate (eGFR), urinary phosphorus, bicarbonate levels, serum iron, UIBC, TIBC, iPTH, and intact fibroblast growth factor 23 (FGF23) from baseline (Visit 4, Week 0) to the end of treatment (Visit 11, Week 12) are also assessed as secondary endpoints.\n(§1) The key secondary endpoints of the study were the mean changes in ferritin, hemoglobin and FGF-23 from baseline to the end of the 12-week treatment period versus placebo in the ITT group."}, "[4]": {"assay": "Phase 2 trial (Example 2): treatment failures", "conditions": "two consecutive visits; 12-week treatment period", "description": "If a subject has a serum phosphorus ≥6.0 mg/dL for at least two visits in a row during the 12-week treatment period, the subject is considered a treatment failure, stops study drug and exits the study.\nThe use of IV iron and erythropoietin stimulating agents (ESAs) is not permitted during the two-week washout and 12-week treatment periods. If a subject's hemoglobin level (Hgb) is <9.0 g/dL during the two-week washout, the subject is a screen failure. If a subject's Hgb is <9.0 g/dL for at least two visits in a row during the 12-week treatment period, the subject is considered a treatment failure, stops study drug and exits the study.\nPatients were discontinued from the study if they had hemoglobin measurements <9.0 g/dL on two consecutive visits or serum phosphorus measurements ≥6.0 mg/dL on two consecutive visits following randomization."}, "C-Terminal FGF-23": {"system": "C-Terminal FGF-23", "assay": "Phase 2 trial (Example 2): C-terminal FGF-23", "conditions": "n = 63", "text": "as §1"}, "[5]": {"conditions": "Active Control n = 149, Ferric Citrate n = 289"}, "[6]": {"conditions": "Ferric Citrate vs Active Control"}, "[7]": {"conditions": "percent of patients, Ferric Citrate N = 289, Active Control N = 149"}, "[8]": {"conditions": "Week 12, last observation carried forward"}}, "data": [{"substance": "iron (+3), x (1, 2, 3-propanetricarboxylic acid, 2-hydroxy-), y (H2O) [KRX-0502]", "values": [{"measurement": "Average Daily EPO (ESA) intake based on the Cumulative EPO (ESA) intake to week 52 (Visit 4-21), Median", "setting": "[1]; Safety Assessment Period, Full Analysis Population, Method 1 to handle overlapping doses", "value": 724.24}, {"measurement": "Average Daily EPO (ESA) intake based on the Cumulative EPO (ESA) intake to week 52 (Visit 4-21), Mean", "setting": "[1]; Safety Assessment Period, Full Analysis Population, Method 1 to handle overlapping doses, SD in the next cell", "value": 1077.67}, {"measurement": "decrease in median ESA intake", "setting": "[1]; administered over a period of 52 weeks, stated as embodiment", "value": 27.1, "unit": "%"}, {"measurement": "Average Hospitalizations per Subject", "setting": "[2]; [5]", "value": 0.63}, {"measurement": "Subjects with One or More Hospitalizations, % of Study Subjects", "setting": "[2]; [5]", "value": 34.6, "unit": "%"}, {"measurement": "Total Hospitalizations", "setting": "[2]; [5]", "value": 181}, {"measurement": "Average Hospitalizations per Subject, % Improvement", "setting": "[2]; [6]", "value": 24.1, "unit": "%"}, {"measurement": "Average Hospitalizations per Subject, Difference", "setting": "[2]; [6]", "value": "−0.20"}, {"measurement": "Subjects with One or More Hospitalizations, Relative % Difference", "setting": "[2]; Ferric Citrate vs Active Control, p = 0.024", "value": "−24.2", "unit": "%"}, {"measurement": "hospitalizations related to cardiac severe adverse events", "setting": "[2]; as compared to Active Control", "value": "able to reduce hospitalizations related to cardiac severe adverse events"}, {"measurement": "Subjects with One or More Hospitalizations", "setting": "[2]; number of subjects, Active Control n = 149, Ferric Citrate n = 289", "value": 100}, {"measurement": "Cardiac Disorders, %", "setting": "[2]; [7]", "value": 4.8, "unit": "%"}, {"measurement": "Gastrointestinal Disorders, %", "setting": "[2]; [7]", "value": 6.2, "unit": "%"}, {"measurement": "Infections, %", "setting": "[2]; [7]", "value": 12.1, "unit": "%"}, {"measurement": "TSAT, Baseline", "setting": "TSAT; Baseline, ITT group, n = 72", "value": 22, "unit": "%"}, {"measurement": "TSAT, End of Treatment (Week 12)", "setting": "TSAT; Week 12, last observation carried forward, ITT group, n = 72", "value": 32, "unit": "%"}, {"measurement": "ending TSAT level at Visit 11 (Week 12)", "setting": "TSAT; sample size assumption", "value": "approximately 25%"}, {"measurement": "Mean Intact FGF-23, Baseline", "setting": "[3]; Baseline", "value": 319, "unit": "pg/mL"}, {"measurement": "Mean Intact FGF-23, End of Treatment (Week 12)", "setting": "[3]; [8]", "value": 200, "unit": "pg/mL"}, {"measurement": "Treatment Failures (n), Hemoglobin <9.0 g/dL", "setting": "[4]", "value": 1}, {"measurement": "Treatment Failures (n), Serum Phosphorus ≥6.0 mg/dL", "setting": "[4]", "value": 0}, {"measurement": "Mean C-Terminal FGF-23, Baseline", "setting": "C-Terminal FGF-23; Baseline", "value": 468, "unit": "pg/mL"}, {"measurement": "Mean C-Terminal FGF-23, End of Treatment (Week 12)", "setting": "C-Terminal FGF-23; [8]", "value": 316, "unit": "pg/mL"}]}]}
